Reference: US20080207738A1, “DRUG COMBINATIONS TO TREAT DRUG RESISTANT TUMORS” (priority 2007, published 2008)

Assays:
parent L5178 cells = assay: Rhodamine 123 cellular content in parent L5178 cells (flow cytometry); assay type: cell-based, mouse; settings: data not shown
Experimental: The L5178 mouse T cell lymphoma parent cell line and its MDR1 expressing subline (L5178/MDR1) were used. […] The cells were adjusted to a concentration of 2×10^6 cells per ml, then resuspended in serum-free McCoy's 5A medium and 0.5-ml portions distributed into small (1.2-ml) Eppendorf centrifuge tubes. After adding various concentrations of test compounds as listed below in Table 2, the samples were incubated for 10 min at room temperature (22° C.). […] After centrifugation (450 g, 10 min) the pelleted cells were washed twice with PBS and resuspended in 0.5-ml of PBS for cytometry. The fluorescence intensity of the cell population was measured by flow cytometry using Beckton Dickinson's FACScan instrument.
The percentage mean fluorescence intensity (FL-1) was calculated for the treated parental and MDR1 cell lines as compared with that of untreated cells. […] Other values measured are Forward scattered count (FSC) and site scattered count (SSC).

Solubility in water = assay type: physicochemical
Text: In one embodiment, CCcompound104, CCcompound26 and EA may be administered orally. The two CC compounds are water-soluble, while EA is first dissolved in absolute ethanol and diluted in water or a suitable physiologically compatible liquid solvent. In one embodiment of the invention, the CC compounds and EA are in the form of a tablet, gel capsule, a liquid, or the like. In each case, the compounds are mixed with one or more carriers chosen by one having ordinary skill in the art to best suit the goal of treatment. In addition to the active compounds, the tablet or gel may contain any component that is presently used in the pharmaceutical field to ensure firmness, stability, solubility and appropriate taste. Any additional component of the tablet or gel will be chemically inert; i.e., it will not participate in a chemical reaction with the active compounds or the other additives. Each compound may be prepared for oral consumption separately, or the tablet, gel capsule or liquid may contain any of the two components or all three components. Tablets containing 25 mg or 50 mg of EA can be purchased from Merck.

C[Si](C)(C)COc1ccc(C(=O)OCCN2CCN(CCCOC(=O)C3c4ccccc4Oc4ccccc43)CC2)cc1.Cl.Cl [CCcompound104]
effect on the cellular content of Rhodamine 123 (parent L5178 cells): no detectable effects | solubility in water (Solubility in water): water-soluble
